Measurements reported in US11786517B2, “Methods of treatment using a JAK inhibitor compound” (THERAVANCE BIOPHARMA R&D IP, LLC, priority 2017, dated 2023).

Assays:
[1] = Pharmacokinetics in plasma and lung in mouse; format: in vivo, BALB/c mice; details: oral aspiration, 0.2 mg/mL, 50 uL
Protocol: Plasma and lung levels of the test compound and the ratio thereof was determined in the following manner. BALB/c mice from Charles River Laboratories were used in the assay. Test compounds were individually formulated in 20% propylene glycol in pH 4 citrate buffer at a concentration of 0.2 mg/mL and 50 uL of the dosing solution was introduced into the trachea of a mouse by oral aspiration. At various time points (typically 0.167, 2, 6, 24 hr) post dosing, blood samples were removed via cardiac puncture and intact lungs were excised from the mice. Blood samples were centrifuged (Eppendorf centrifuge, 5804R) for 4 minutes at approximately 12,000 rpm at 4° C. to collect plasma. Lungs were padded dry, weighed, and homogenized at a dilution of 1:3 in sterile water. Plasma and lung levels of test compound were determined by LC-MS analysis against analytical standards constructed into a standard curve in the test matrix. A lung to plasma ratio was determined as the ratio of the lung AUC in μg hr/g to the plasma AUC in μg hr/mL, where AUC is conventionally defined as the area under the curve of test compound concentration vs. time.

[2] = test system: IL-13 induced pSTAT6 in lung tissue; assay: Murine model of IL-13 induced pSTAT6 induction in lung tissue; format: in vivo, balb/c mice; details: mouse lung, 0.5 mg/mL 50 μL oral aspiration
Protocol: Il-13 is an important cytokine underlying the pathophysiology of asthma (Kudlacz et al. Eur. J. Pharmacol, 2008, 582, 154-161). IL-13 binds to cell surface receptors activating members of the Janus family of kinases (JAK) which then phosphorylate STAT6 and subsequently activates further transcription pathways. In the described model, a dose of IL-13 was delivered locally into the lungs of mice to induce the phosphorylation of STAT6 (pSTAT6) which is then measured as the endpoint.
Adult balb/c mice from Harlan were used in the assay. On the day of study, animals were lightly anesthetized with isoflurane and administered either vehicle or test compound (0.5 mg/mL, 50 μL total volume over several breaths) via oral aspiration. Animals were placed in lateral recumbency post dose and monitored for full recovery from anesthesia before being returned to their home cage. Four hours later, animals were once again briefly anesthetized and challenged with either vehicle or IL-13 (0.03 μg total dose delivered, 50 μL total volume) via oral aspiration before being monitored for recovery from anesthesia and returned to their home cage. […] using an anti-pSTAT6 ELISA (rabbit mAb capture/coating antibody; mouse mAb detection/report antibody: anti-pSTAT6-pY641; secondary antibody: anti-mouse IgG-HRP) and analyzed for total drug concentration as described above in Assay 11. […]

BALF eosinophils = assay: Murine model of Alternaria alternata-induced eosinophilic inflammation of the lung; format: in vivo, C57 mice; details: mouse, oropharyngeal aspiration 0.1-1.0 mg/mL, forty-eight hours after alternaria challenge
Protocol: Airway eosinophilia is a hallmark of human asthma. Alternaria alternata is a fungal aeroallergen that can exacerbate asthma in humans and induces eosinophilic inflammation in the lungs of mice (Havaux et al. Clin Exp Immunol. 2005, 139(2):179-88).
Seven- to nine-week old male C57 mice from Taconic were used in the study. On the day of study, animals were lightly anesthetized with isoflurane and administered either vehicle or test compound (0.1-1.0 mg/mL, 50 μL total volume over several breaths) via oropharyngeal aspiration. Animals were placed in lateral recumbency post dose and monitored for full recovery from anesthesia before being returned to their home cage. One hour later, animals were once again briefly anesthetized and challenged with either vehicle or alternaria extract (200 ug total extract delivered, 50 μL total volume) via oropharyngeal aspiration before being monitored for recovery from anesthesia and returned to their home cage. Forty-eight hours after alternaria administration, bronchoalveolar lavage fluid (BALF) was collected and eosinophils were counted in the BALF using the Advia 120 Hematology System (Siemens).
Activity in the model is evidenced by a decrease in the level of eosinophils present in the BALF of treated animals at forty-eight hours compared to the vehicle treated, alternaria challenged control animals. […]

[3] = test system: IFNγ induced CXCL10 secretion; assay: Inhibition of IFNγ induced CXCL10 in human 3D airway cultures; format: cell-based; details: at μM (so in the source), 8 days, ±STDV
Protocol: EpiAirway tissue cultures were obtained from Mattek (AIR-100). Cultures were derived from asthmatic donors. In a cell culture insert, human derived tracheal/bronchial epithelial cells were grown and differentiated on a porous membrane support, allowing an air-liquid interface with warmed culture medium below the cells and a gaseous test atmosphere above. Tissues were cultured in maintenance media (Mattek, AIR-100-MM) in a 37° C., 5% CO2 humidified incubator. Four donors were tested. On Day 0, tissue cultures were treated with test compounds at 10 μM, 1 μM and/or 0.1 μM. Compounds were diluted in dimethyl sulfoxide (DMSO, Sigma) to a final concentration of 0.1%. DMSO at 0.1% was used as a vehicle control. Test compounds were incubated with cultures for 1 hour at 37° C., 5% CO2, followed by the addition of pre-warmed media containing IFNγ (R&D Systems) or IL-27 (R&D Systems) at a final concentration at 100 ng/ml. Tissue cultures were maintained for 8 days. Media was replaced every 2 days with fresh media containing compounds and IFNγ or IL-27. On Day 8, tissue cultures and supernatants were collected for analysis. […] Data is expressed as % Inhibition+/−standard deviation (±STDV). Percent inhibition was determined by compound inhibitory potency against IFNγ or IL-27 induced CXCL10 or CXCL9 secretion compared to vehicle treated cells. […]

**Q.** Which results are given for `CCc1cc(O)c(F)cc1-c1ccc2c(-c3nc4c([nH]3)CCN(C3CCN(C)CC3)C4)n[nH]c2c1` [compound 1, 5-ethyl-2-fluoro-4-(3-(5-(1-methylpiperidin-4-yl)-4,5,6,7-tetrahydro-1H-imidazo[4,5-c]pyridin-2-yl)-1H-indazol-6-yl)phenol]?
**A.** exposure in lung relative to exposure in plasma (lung AUC to plasma AUC ratio) [1]: about 55 times; inhibition of STAT6 phosphorylation [2]: about 60%; inhibition of BALF eosinophil counts (BALF eosinophils): about 88%; inhibition of IFNγ induced CXCL10 secretion [3]: 71%±19
